According to ChEMBL document CHEMBL5241129, “Design and synthesis of novel orexin 2 receptor agonists with a 1,3,5‑trioxazatriquinane skeleton” (Bioorg Med Chem Lett, 2023):
Calls of active or inactive are those of the source. No cut-off for these calls is given here.

biological target: T1, Orexin/Hypocretin receptor type 1 (Homo sapiens) (UniProt O43613); experiment: Agonist activity at OX1R (unknown origin) expressed in CHO cells at 10 uM by cell based calcium assay; conditions: not given
T1 sequence (whole entry): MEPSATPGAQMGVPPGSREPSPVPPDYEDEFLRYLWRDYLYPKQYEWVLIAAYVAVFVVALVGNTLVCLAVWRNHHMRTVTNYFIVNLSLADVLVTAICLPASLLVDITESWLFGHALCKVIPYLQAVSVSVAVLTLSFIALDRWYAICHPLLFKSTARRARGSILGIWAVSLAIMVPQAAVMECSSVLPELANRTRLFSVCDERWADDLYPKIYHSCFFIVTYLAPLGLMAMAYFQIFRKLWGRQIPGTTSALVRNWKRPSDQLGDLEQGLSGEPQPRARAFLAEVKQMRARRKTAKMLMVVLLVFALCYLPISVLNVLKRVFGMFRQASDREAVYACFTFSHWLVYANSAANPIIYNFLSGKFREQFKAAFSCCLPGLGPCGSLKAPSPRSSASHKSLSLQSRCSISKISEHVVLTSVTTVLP

Compound | Activity
C[C@]1(CNS(=O)(=O)c2ccccc2)O[C@H]2CO[C@@H]3N2[C@H]1O[C@]3(C)CNS(=O)(=O)c1ccccc1 | inactive

biological target: T2, Orexin receptor type 2 (Homo sapiens, UniProt O43614); experiment: Agonist activity at OX2R (unknown origin) expressed in CHO cells by cell based calcium assay; conditions: not given
T2 sequence (O43614 whole entry): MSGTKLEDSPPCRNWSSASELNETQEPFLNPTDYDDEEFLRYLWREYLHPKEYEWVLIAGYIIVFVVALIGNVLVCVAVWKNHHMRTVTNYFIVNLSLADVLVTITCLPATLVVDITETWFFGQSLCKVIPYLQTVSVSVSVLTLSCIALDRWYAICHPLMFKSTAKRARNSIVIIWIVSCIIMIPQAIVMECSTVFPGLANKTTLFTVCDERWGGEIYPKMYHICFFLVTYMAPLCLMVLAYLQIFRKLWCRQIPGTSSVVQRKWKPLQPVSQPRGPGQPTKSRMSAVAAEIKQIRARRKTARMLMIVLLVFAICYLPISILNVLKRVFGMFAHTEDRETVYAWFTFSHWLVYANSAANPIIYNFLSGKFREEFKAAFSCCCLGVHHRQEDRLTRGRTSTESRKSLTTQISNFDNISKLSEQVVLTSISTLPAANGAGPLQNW

Compound | EC50 [nM]
CCCCCCCCS(=O)(=O)NC[C@]1(C)O[C@@H]2CO[C@H]3N2[C@@H]1O[C@@]3(C)CNS(=O)(=O)CCCCCCCC (stereo in doubt; (+)-28d) [listing 1 of 2 here] | 1620
CCCCCCCCS(=O)(=O)NC[C@@]1(C)O[C@H]2CO[C@@H]3N2[C@H]1O[C@]3(C)CNS(=O)(=O)CCCCCCCC | 2420

biological target: T3, Orexin/Hypocretin receptor type 1 (Homo sapiens, UniProt O43613); experiment: Antagonist activity at OX1R (unknown origin); conditions: not given
T3 sequence (O43613 whole entry): T1 sequence (whole entry)

Compound | Ki [nM]
COc1ccc(C(=O)Nc2cccc([C@]3(C)O[C@H]4CO[C@@H]5N4[C@H]3O[C@@]5(C)c3cccc(NC(=O)c4ccc(OC)cc4)c3)c2)cc1 | 5.23
COc1ccc(C(=O)Nc2cccc([C@@]3(C)O[C@@H]4CO[C@H]5N4[C@@H]3O[C@]5(C)c3cccc(NC(=O)c4ccc(OC)cc4)c3)c2)cc1 | 2.17

biological target: T1, Orexin/Hypocretin receptor type 1 (Homo sapiens); experiment: Antagonist activity at OX1R (unknown origin) expressed in CHO cells at 10 uM in presence of orexin A by cell based calcium assay; conditions: not given

Compound | Activity
C[C@]1(CNS(C)(=O)=O)O[C@@H]2CO[C@H]3N2[C@@H]1O[C@]3(C)CNS(C)(=O)=O | inactive
CCCCCCCCS(=O)(=O)NC[C@]1(C)O[C@@H]2CO[C@H]3N2[C@@H]1O[C@@]3(C)CNS(=O)(=O)CCCCCCCC (stereo in doubt; 28a) | inactive
CCCS(=O)(=O)NC[C@@]1(C)O[C@@H]2CO[C@H]3N2[C@@H]1O[C@]3(C)CNS(=O)(=O)CCC | inactive
CC(C)(C)OC(=O)NC[C@@]1(C)O[C@@H]2CO[C@H]3N2[C@@H]1O[C@]3(C)CNC(=O)OC(C)(C)C (racemic) | inactive
CCCCS(=O)(=O)NC[C@@]1(C)O[C@@H]2CO[C@H]3N2[C@@H]1O[C@]3(C)CNS(=O)(=O)CCCC | inactive
CCCCCCCCS(=O)(=O)NC[C@@]1(C)O[C@@H]2CO[C@H]3N2[C@@H]1O[C@]3(C)CNS(=O)(=O)CCCCCCCC (racemic) | inactive

biological target: T1, Orexin/Hypocretin receptor type 1 (Homo sapiens); experiment: Agonist activity at OX1R (unknown origin) expressed in CHO cells at 10 uM by cell based calcium assay relative to orexin A; conditions: not given

Compound | Emax [%]
CC(C)(C)OC(=O)NC[C@]1(C)O[C@@H]2CO[C@H]3N2[C@@H]1O[C@@]3(C)CNC(=O)OC(C)(C)C (stereo in doubt; 20a) | 30.1
CN(C[C@@]1(C)O[C@@H]2CO[C@H]3N2[C@@H]1O[C@]3(C)CN(C)C(=O)OC(C)(C)C)C(=O)OC(C)(C)C | 4.47
C[C@]1(CNS(C)(=O)=O)O[C@@H]2CO[C@H]3N2[C@@H]1O[C@]3(C)CNS(C)(=O)=O | 5.66
CCCCCCCCS(=O)(=O)NC[C@]1(C)O[C@@H]2CO[C@H]3N2[C@@H]1O[C@@]3(C)CNS(=O)(=O)CCCCCCCC (stereo in doubt; 28a) | 11.8
CC(C)(C)OC(=O)NC[C@@]1(C)O[C@H]2CO[C@@H]3N2[C@H]1O[C@]3(C)CNC(=O)OC(C)(C)C | 4.31
CCCS(=O)(=O)NC[C@@]1(C)O[C@@H]2CO[C@H]3N2[C@@H]1O[C@]3(C)CNS(=O)(=O)CCC | 14.2
CCCCCCCCS(=O)(=O)N(C)C[C@@]1(C)O[C@@H]2CO[C@H]3N2[C@@H]1O[C@]3(C)CN(C)S(=O)(=O)CCCCCCCC | 2.65
CC(C)(C)OC(=O)NC[C@@]1(C)O[C@@H]2CO[C@H]3N2[C@@H]1O[C@@]3(C)CNC(=O)OC(C)(C)C | 2.21
CCCCCCCCS(=O)(=O)NC[C@@]1(C)O[C@@H]2CO[C@H]3N2[C@@H]1O[C@@]3(C)CNS(=O)(=O)CCCCCCCC | 3.86
CC(C)(C)NC(=O)NC[C@@]1(C)O[C@@H]2CO[C@H]3N2[C@@H]1O[C@]3(C)CNC(=O)NC(C)(C)C | 2.81
CCCCS(=O)(=O)NC[C@@]1(C)O[C@@H]2CO[C@H]3N2[C@@H]1O[C@]3(C)CNS(=O)(=O)CCCC | 11.1
CCCCCCCCS(=O)(=O)NC[C@@]1(C)O[C@H]2CO[C@@H]3N2[C@H]1O[C@]3(C)CNS(=O)(=O)CCCCCCCC | 5.29
CC(C)(C)OC(=O)NC[C@]1(C)O[C@@H]2CO[C@H]3N2[C@@H]1O[C@@]3(C)CNC(=O)OC(C)(C)C (stereo in doubt; (+)-20d) | 5.07
CCCCCCCCS(=O)(=O)NC[C@]1(C)O[C@@H]2CO[C@H]3N2[C@@H]1O[C@@]3(C)CNS(=O)(=O)CCCCCCCC (stereo in doubt; (+)-28d) [listing 2 of 2 here] | 5.66
CCCCCCCCS(=O)(=O)NC[C@@]1(C)O[C@@H]2CO[C@H]3N2[C@@H]1O[C@]3(C)CNS(=O)(=O)CCCCCCCC (racemic) | 23.6
CCCCCCCCS(=O)(=O)NC[C@@]1(C)O[C@H]2N3[C@@H](CO[C@@H]31)O[C@@]2(C)CNS(=O)(=O)CCCCCCCC | 3.71
CC(C)(C)OC(=O)NC[C@@]1(C)O[C@H]2N3[C@@H](CO[C@@H]31)O[C@@]2(C)CNC(=O)OC(C)(C)C | 4.94

same assay, conditions: filed as agonist

Compound | Emax [%]
CC(C)(C)OC(=O)NC[C@@]1(C)O[C@@H]2CO[C@H]3N2[C@@H]1O[C@]3(C)CNC(=O)OC(C)(C)C (racemic) | 54

biological target: T4, Orexin receptor type 2 (Homo sapiens) (UniProt O43614); experiment: Agonist activity at OX2R (unknown origin) expressed in CHO cells at 10 uM by cell based calcium assay; conditions: not given
T4 sequence (whole entry): T2 sequence (O43614 whole entry)

Compound | Activity
COc1ccc(C(=O)NC[C@@]2(C)O[C@H]3CO[C@@H]4N3[C@H]2O[C@]4(C)CNC(=O)c2ccc(OC)cc2)cc1 | inactive
COc1ccc(C(=O)NC[C@]2(C)O[C@H]3CO[C@@H]4N3[C@H]2O[C@@]4(C)CNC(=O)c2ccc(OC)cc2)cc1 | inactive
C[C@]1(CNS(=O)(=O)c2ccccc2)O[C@H]2CO[C@@H]3N2[C@H]1O[C@]3(C)CNS(=O)(=O)c1ccccc1 | inactive
C=CCOC(=O)NC[C@]1(C)O[C@H]2CO[C@@H]3N2[C@H]1O[C@@]3(C)CNC(=O)OCC=C | inactive
C[C@]1(CNC(=O)CCc2ccccc2)O[C@H]2CO[C@@H]3N2[C@H]1O[C@]3(C)CNC(=O)CCc1ccccc1 | inactive
CC(=O)NC[C@]1(C)O[C@H]2CO[C@@H]3N2[C@H]1O[C@@]3(C)CNC(C)=O | inactive
CC(=O)NC[C@@]1(C)O[C@H]2CO[C@@H]3N2[C@H]1O[C@]3(C)CNC(C)=O | inactive
C[C@]1(CNC(=O)/C=C/c2ccccc2)O[C@H]2CO[C@@H]3N2[C@H]1O[C@]3(C)CNC(=O)/C=C/c1ccccc1 | inactive
COC(=O)NC[C@]1(C)O[C@H]2CO[C@@H]3N2[C@H]1O[C@@]3(C)CNC(=O)OC | inactive
C[C@@]1(CNC(=O)OCc2ccccc2)O[C@H]2CO[C@@H]3N2[C@H]1O[C@@]3(C)CNC(=O)OCc1ccccc1 | inactive
COc1ccccc1C(=O)NC[C@]1(C)O[C@H]2CO[C@@H]3N2[C@H]1O[C@@]3(C)CNC(=O)c1ccccc1OC | inactive
CC(C)(C)C(=O)NC[C@]1(C)O[C@H]2CO[C@@H]3N2[C@H]1O[C@@]3(C)CNC(=O)C(C)(C)C | inactive
C[C@@]1(CNC(=O)OCC(Cl)(Cl)Cl)O[C@H]2CO[C@@H]3N2[C@H]1O[C@@]3(C)CNC(=O)OCC(Cl)(Cl)Cl | inactive
C[C@@]1(CNC(=O)/C=C/c2ccccc2)O[C@H]2CO[C@@H]3N2[C@H]1O[C@@]3(C)CNC(=O)/C=C/c1ccccc1 | inactive
COc1ccccc1C(=O)NC[C@@]1(C)O[C@H]2CO[C@@H]3N2[C@H]1O[C@]3(C)CNC(=O)c1ccccc1OC | inactive
C[C@@]1(CNC(=O)c2ccccc2)O[C@H]2CO[C@@H]3N2[C@H]1O[C@@]3(C)CNC(=O)c1ccccc1 | inactive
COC(=O)NC[C@@]1(C)O[C@H]2CO[C@@H]3N2[C@H]1O[C@]3(C)CNC(=O)OC | inactive
COc1cccc(C(=O)NC[C@]2(C)O[C@H]3CO[C@@H]4N3[C@H]2O[C@@]4(C)CNC(=O)c2cccc(OC)c2)c1 | inactive
C[C@]1(CNC(=O)OCC(Cl)(Cl)Cl)O[C@H]2CO[C@@H]3N2[C@H]1O[C@]3(C)CNC(=O)OCC(Cl)(Cl)Cl | inactive
C[C@@]1(CNC(=O)CCc2ccccc2)O[C@H]2CO[C@@H]3N2[C@H]1O[C@@]3(C)CNC(=O)CCc1ccccc1 | inactive
COc1cccc(C(=O)NC[C@@]2(C)O[C@H]3CO[C@@H]4N3[C@H]2O[C@]4(C)CNC(=O)c2cccc(OC)c2)c1 | inactive
C[C@@]1(CNC(=O)Cc2ccccc2)O[C@H]2CO[C@@H]3N2[C@H]1O[C@@]3(C)CNC(=O)Cc1ccccc1 | inactive
CC(C)(C)C(=O)NC[C@@]1(C)O[C@H]2CO[C@@H]3N2[C@H]1O[C@]3(C)CNC(=O)C(C)(C)C | inactive
C[C@]1(CNC(=O)OCc2ccccc2)O[C@H]2CO[C@@H]3N2[C@H]1O[C@]3(C)CNC(=O)OCc1ccccc1 | inactive
C[C@]1(CNC(=O)Cc2ccccc2)O[C@H]2CO[C@@H]3N2[C@H]1O[C@]3(C)CNC(=O)Cc1ccccc1 | inactive
C[C@]1(CNC(=O)c2ccccc2)O[C@H]2CO[C@@H]3N2[C@H]1O[C@]3(C)CNC(=O)c1ccccc1 | inactive
C=CCOC(=O)NC[C@@]1(C)O[C@H]2CO[C@@H]3N2[C@H]1O[C@]3(C)CNC(=O)OCC=C | inactive
